Data from PMC9024521, “4-Heteroaryl Substituted Amino-3,5-Dicyanopyridines as New Adenosine Receptor Ligands: Novel Insights on Structure-Activity Relationships and Perspectives” (Pharmaceuticals, 2022).

Key:
hA1AR = target: T1, hA1AR (Homo sapiens, UniProt P30542); assay: Competition binding, [3H]DPCPX, hA1 CHO cell membranes; settings: displacement of [3H]DPCPX, hA1 CHO cells; mean ± SEM of four assays
T1 construct: host or cells: CHO cells
T1 sequence (P30542 1-326): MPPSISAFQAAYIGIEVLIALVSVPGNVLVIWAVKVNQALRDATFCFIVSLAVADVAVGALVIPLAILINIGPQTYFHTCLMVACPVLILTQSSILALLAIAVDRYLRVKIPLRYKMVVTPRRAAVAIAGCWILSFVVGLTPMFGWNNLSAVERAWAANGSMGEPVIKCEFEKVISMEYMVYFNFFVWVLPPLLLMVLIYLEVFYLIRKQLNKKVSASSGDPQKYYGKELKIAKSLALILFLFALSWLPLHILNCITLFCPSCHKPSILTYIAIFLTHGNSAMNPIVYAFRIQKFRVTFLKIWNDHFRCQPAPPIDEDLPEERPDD
Description: CHO cells transfected with hA1, hA2A, hA2B and hA3 ARs (Perkin Elmer, Boston, MA, USA) were grown adherently and maintained in Dulbecco’s modified Eagle’s medium with nutrient mixture F12, containing 10% fetal calf serum, penicillin (100 U/mL), streptomycin (100 μg/mL), L-glutamine (2 mM) and geneticine (G418; 0.2 mg/mL), at 37 °C, in 5% CO2/95% air, until their use in cAMP assays. For membrane preparation, the culture medium was removed, and the cells were washed with phosphate-buffered saline and scraped off T75 flasks in ice-cold hypotonic buffer (5 mM Tris HCl, 1 mM EDTA, pH 7.4). The cell suspension was homogenized with a Polytron, centrifuged for 30 min at 40,000× g, at 4 °C, and the resulting membrane pellet was used for competition binding experiments.
All synthesized compounds were tested for their affinity to hA1, hA2A and hA3 ARs. Competition experiments to hA1AR were carried out by incubating 1 nM [^3H]-8-cyclopentyl-1,3-dipropylxanthine ([^3H]-DPCPX) with membrane suspension (50 μg of protein/100 μL) and different concentrations of the examined compounds at 25 °C for 90 min in 50 mM Tris HCl, pH 7.4. Non-specific binding was defined as binding in the presence of 1 μM DPCPX and was always <10% of the total binding. Inhibition experiments to hA2A ARs were performed by incubating the radioligand [^3H]-4-(-2-[7-amino-2-{2-furyl}{1,2,4}triazolo{2,3-a} {1,3,5}triazin-5-yl-amino]ethyl)phenol ([^3H]-ZM241385) (1 nM) with the membrane suspension (50 μg of protein/100 μL) and different concentrations of the examined compounds for 60 min, at 4 °C, in 50 mM Tris HCl (pH 7.4), 10 mM MgCl2. Non-specific binding was determined in the presence of ZM241385 (1 μM) and was about 20% of the total binding. Competition binding experiments to A3ARs were carried out by incubating the membrane suspension (50 μg of protein/100 μL) with 0.5 nM [^125I]-N6-(4-aminobenzyl)-N-methylcarboxamidoadenosine ([^125I]-ABMECA) in the presence of different concentrations of the examined compounds for an incubation time of 120 min, at 4 °C, in 50 mM Tris HCl (pH 7.4), 10 mM MgCl2, 1 mM EDTA. Non-specific binding was defined as binding in the presence of 1 μM ABMECA and was always <10% of the total binding. Bound and free radioactivity were separated by filtering the assay mixture through Whatman GF/B glass-fiber filters, using a Brandel cell harvester (Brandel Instruments, Unterföhring, Germany). The filter bound radioactivity was counted by Packard Tri Carb 2810 TR scintillation counter (Perkin Elmer).
The protein concentration was determined according to a Bio-Rad method, with bovine albumin as a standard reference. Inhibitory binding constant (Ki) values were calculated from those of IC50 according to the Cheng–Prusoff equation, Ki = IC50/(1 + [C*]/KD*), where [C*] is the concentration of the radioligand, and KD* its dissociation constant. Ki and IC50 values were calculated by non-linear regression analysis, using the equation for a sigmoid concentration-response curve (Graph-PAD Prism, San Diego, CA, USA).

SMILES | Ki (hA1AR) | melting point
N#Cc1c(N)nc(SCc2ncc[nH]2)c(C#N)c1-c1cccs1 [Compound 5, 2-Amino-6-[(1H-imidazol-2-ylmethyl)sulfanyl]-4-(thiophen-2-yl)pyridine-3,5-dicarbonitrile] | 2.5 ± 0.2 nM | 246 to 248 °C
N#Cc1c(N)nc(SCc2ncc[nH]2)c(C#N)c1-c1ccco1 [Compound 1, 2-Amino-4-(furan-2-yl)-6-[(1H-imidazol-2-ylmethyl)sulfanyl]pyridine-3,5-dicarbonitrile] | 9.63 ± 1.61 nM | –
